Converted amounts (≈) assume the structure as drawn. Blank lines part the entries; values can stand above or below the compound they belong to.
Columns and labels:
[1] = target: Alpha-(1,6)-fucosyltransferase (Homo sapiens, UniProt Q9BYC5); assay: Inhibition of FucT-8 in human blood platelets
[2] = target: T1, 4-galactosyl-N-acetylglucosaminide 3-alpha-L-fucosyltransferase FUT6 (Homo sapiens, UniProt P51993); assay: Inhibition of FucT-6 (unknown origin)
T1 sequence (P51993 whole entry): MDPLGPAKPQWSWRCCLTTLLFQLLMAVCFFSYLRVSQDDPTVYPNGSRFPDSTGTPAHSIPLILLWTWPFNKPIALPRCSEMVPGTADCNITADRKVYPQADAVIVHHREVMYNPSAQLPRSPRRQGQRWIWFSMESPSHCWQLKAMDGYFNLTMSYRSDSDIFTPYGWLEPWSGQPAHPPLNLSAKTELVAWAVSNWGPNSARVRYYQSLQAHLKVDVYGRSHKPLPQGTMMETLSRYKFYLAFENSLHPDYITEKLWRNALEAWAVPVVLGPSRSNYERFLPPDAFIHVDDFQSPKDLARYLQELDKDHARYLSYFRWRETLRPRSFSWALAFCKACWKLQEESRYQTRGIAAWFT

[3] = target: T2, CMP-N-acetylneuraminate-beta-1,4-galactoside alpha-2,3-sialyltransferase (Homo sapiens, UniProt Q11203); assay: Inhibition of ST3N (unknown origin)
T2 sequence (Q11203 whole entry): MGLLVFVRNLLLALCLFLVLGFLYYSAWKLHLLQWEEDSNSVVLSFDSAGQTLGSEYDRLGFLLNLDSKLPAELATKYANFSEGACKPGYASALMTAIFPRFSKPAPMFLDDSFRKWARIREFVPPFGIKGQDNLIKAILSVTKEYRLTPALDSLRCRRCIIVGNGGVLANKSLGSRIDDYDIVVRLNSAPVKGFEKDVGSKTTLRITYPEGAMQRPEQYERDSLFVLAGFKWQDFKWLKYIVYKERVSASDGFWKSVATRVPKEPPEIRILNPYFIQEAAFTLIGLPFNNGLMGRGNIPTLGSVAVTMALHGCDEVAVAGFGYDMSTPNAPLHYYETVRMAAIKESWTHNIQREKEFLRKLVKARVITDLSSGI

[4] = target: T3, 4-galactosyl-N-acetylglucosaminide 3-alpha-L-fucosyltransferase FUT5 (Homo sapiens, UniProt Q11128); assay: Inhibition of FucT-5 (unknown origin)
T3 sequence (Q11128 whole entry): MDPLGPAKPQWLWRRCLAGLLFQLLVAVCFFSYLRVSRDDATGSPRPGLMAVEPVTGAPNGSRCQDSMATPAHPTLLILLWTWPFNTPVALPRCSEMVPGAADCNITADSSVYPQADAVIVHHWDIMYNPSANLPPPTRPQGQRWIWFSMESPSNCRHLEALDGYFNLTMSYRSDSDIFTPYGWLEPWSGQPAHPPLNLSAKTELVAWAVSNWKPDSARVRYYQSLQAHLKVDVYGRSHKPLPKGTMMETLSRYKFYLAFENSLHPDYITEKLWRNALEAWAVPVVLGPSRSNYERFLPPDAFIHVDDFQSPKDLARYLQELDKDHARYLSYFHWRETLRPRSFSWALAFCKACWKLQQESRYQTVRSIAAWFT

[5] = target: T4, CMP-N-acetylneuraminate-beta-galactosamide-alpha-2,3-sialyltransferase 1 (Homo sapiens, UniProt Q11201); assay: Inhibition of ST3Gal 1 (unknown origin)
T4 sequence (Q11201 whole entry): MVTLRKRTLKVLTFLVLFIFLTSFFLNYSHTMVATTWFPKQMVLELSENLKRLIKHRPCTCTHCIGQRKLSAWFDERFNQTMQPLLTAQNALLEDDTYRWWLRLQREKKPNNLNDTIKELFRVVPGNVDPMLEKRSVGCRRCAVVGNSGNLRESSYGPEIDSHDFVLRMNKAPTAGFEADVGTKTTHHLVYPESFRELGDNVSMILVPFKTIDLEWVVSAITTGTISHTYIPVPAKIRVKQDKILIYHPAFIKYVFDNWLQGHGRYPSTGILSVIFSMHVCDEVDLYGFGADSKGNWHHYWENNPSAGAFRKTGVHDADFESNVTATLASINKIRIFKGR

[6] = target: T5, Beta-galactoside alpha-2,6-sialyltransferase 1 (Homo sapiens, UniProt P15907); assay: Inhibition of ST6N (unknown origin)
T5 sequence (P15907 whole entry): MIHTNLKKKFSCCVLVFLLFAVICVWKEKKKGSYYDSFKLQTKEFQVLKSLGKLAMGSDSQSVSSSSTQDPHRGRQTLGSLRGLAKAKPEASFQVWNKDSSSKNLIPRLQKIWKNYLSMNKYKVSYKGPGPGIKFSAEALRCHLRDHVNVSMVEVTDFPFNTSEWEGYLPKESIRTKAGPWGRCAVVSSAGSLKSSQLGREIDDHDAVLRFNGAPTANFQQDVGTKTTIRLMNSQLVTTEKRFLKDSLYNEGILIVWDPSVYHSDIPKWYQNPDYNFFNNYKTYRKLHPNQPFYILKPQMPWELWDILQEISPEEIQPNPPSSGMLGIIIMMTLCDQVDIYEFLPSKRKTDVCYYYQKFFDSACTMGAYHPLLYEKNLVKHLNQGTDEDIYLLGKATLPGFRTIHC

Trypanosoma brucei = assay: Inhibition of Trypanosoma brucei DPMS at 1 mM
[7] = target: T6, UDP-N-acetylglucosamine--peptide N-acetylglucosaminyltransferase 110 kDa subunit (Homo sapiens) (UniProt O15294); assay: Inhibition of OGT (unknown origin); details: concentration not given here
T6 sequence (whole entry): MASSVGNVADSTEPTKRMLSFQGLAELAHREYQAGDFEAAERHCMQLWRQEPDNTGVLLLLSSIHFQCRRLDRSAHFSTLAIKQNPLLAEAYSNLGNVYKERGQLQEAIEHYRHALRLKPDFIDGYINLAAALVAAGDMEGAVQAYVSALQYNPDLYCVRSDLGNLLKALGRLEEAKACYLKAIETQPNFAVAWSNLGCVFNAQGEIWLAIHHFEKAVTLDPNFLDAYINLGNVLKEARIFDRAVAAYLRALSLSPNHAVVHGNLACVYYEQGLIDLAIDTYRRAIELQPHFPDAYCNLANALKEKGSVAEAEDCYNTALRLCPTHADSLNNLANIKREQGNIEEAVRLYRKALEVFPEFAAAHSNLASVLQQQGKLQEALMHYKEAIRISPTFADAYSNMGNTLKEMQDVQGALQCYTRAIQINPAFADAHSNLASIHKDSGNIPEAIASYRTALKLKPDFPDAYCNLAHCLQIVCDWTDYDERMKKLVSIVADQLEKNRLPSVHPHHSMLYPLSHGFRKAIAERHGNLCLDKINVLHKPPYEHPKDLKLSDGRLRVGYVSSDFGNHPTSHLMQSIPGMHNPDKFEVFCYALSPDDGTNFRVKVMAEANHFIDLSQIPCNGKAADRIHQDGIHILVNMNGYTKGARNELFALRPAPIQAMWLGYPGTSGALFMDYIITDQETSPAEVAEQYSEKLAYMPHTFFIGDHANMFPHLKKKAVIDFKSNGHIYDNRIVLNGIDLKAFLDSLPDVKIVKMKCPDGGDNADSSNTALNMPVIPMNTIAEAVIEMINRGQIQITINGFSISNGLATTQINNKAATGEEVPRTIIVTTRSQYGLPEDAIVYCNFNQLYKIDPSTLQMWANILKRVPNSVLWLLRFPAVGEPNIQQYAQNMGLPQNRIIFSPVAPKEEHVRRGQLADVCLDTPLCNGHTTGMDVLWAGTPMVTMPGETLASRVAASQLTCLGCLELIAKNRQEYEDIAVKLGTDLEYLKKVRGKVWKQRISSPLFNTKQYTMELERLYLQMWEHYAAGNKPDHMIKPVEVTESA

[8] = Inhibition of MraY (unknown origin)
[9] = target: T7, Alpha-(1,3)-fucosyltransferase 7 (Homo sapiens, UniProt Q11130); assay: Inhibition of FucT-7 (unknown origin)
T7 sequence (Q11130 whole entry): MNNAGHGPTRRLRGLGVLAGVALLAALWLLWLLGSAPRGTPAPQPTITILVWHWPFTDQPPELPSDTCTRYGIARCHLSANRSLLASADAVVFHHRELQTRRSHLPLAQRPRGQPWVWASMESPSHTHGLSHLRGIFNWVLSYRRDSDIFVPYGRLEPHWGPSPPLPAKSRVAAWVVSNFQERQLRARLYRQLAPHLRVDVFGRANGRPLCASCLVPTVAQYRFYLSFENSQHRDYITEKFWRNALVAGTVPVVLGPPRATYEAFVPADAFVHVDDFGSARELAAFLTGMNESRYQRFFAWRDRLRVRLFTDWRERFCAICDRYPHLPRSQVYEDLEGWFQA

[10] = Inhibition of short OGT (unknown origin); set-up: species or system Homo sapiens
Candida albicans = assay: Antifungal activity against Candida albicans; assay type: functional
[11] = Inhibition of candida albicans beta-(1,3)-glucan synthase assessed as decrease in transfer of radiolabelled glucose from UDP-[3H]-glucose onto acceptor
[12] = Inhibition of MGDG (unknown origin)
Streptococcus mutans = assay: Inhibition of Streptococcus mutans sucrose-6-glucosyltransferase at 50 uM
[13] = target: Ceramide glucosyltransferase (Homo sapiens, UniProt Q16739); assay: Inhibition of glucosylceramide synthase (unknown origin)
Chain of Ceramide glucosyltransferase (Q16739 whole entry): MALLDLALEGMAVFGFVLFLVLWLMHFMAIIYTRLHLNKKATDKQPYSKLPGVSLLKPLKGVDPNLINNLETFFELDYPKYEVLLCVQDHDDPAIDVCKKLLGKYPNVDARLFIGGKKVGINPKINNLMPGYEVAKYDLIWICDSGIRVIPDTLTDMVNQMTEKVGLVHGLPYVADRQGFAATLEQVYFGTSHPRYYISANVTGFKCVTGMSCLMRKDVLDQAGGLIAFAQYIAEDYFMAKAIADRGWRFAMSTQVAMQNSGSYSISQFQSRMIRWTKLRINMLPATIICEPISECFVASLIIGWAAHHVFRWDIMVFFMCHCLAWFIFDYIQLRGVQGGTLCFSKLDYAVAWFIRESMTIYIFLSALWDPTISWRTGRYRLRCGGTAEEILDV

Chain of Alpha-(1,6)-fucosyltransferase (Q9BYC5 whole entry): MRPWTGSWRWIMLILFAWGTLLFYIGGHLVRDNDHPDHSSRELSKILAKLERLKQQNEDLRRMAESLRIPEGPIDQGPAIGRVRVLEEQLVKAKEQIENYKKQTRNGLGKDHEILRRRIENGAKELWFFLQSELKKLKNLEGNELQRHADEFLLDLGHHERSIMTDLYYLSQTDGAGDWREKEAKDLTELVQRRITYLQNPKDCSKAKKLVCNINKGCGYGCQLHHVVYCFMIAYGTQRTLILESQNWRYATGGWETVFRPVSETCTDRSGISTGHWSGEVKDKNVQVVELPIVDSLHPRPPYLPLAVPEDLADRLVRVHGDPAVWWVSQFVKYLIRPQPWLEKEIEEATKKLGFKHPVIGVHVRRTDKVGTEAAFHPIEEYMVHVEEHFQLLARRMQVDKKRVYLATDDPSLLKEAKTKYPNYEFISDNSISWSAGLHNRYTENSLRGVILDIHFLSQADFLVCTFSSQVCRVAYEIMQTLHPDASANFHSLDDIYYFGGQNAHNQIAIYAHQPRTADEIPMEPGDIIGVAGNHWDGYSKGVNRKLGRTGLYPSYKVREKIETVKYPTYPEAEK

Structure (SMILES): C[C@@H]1CC[C@H]2C(C)(C)[C@H](O)CC[C@]2(C)[C@@]12Cc1c(O)cc3c(c1O2)COC3=O
IC50 [2]: > 200 µM | IC50 [3]: 50 µM | IC50 [4]: > 200 µM | IC50 [5]: 30.2 µM | IC50 [6]: 8 µM

Structure (SMILES): O=C(O)c1ccc2scnc2c1
inhibition [7]: > 30%

Structure (SMILES): CC(C)CCCCCCCCCCCCc1cc(OS(=O)(=O)O)cc(OS(=O)(=O)O)c1
IC50 [9]: 4.8 µM

Structure (SMILES): CC(=O)O[C@@H]1C[C@]23C4=CC[C@@]5(C)[C@H](C(=O)O)[C@@](C)([C@H](C)C(C)C)CC[C@]5(C)[C@H]4CC[C@H]2[C@@](C)(COC3O)[C@H]1O[C@@H]1O[C@H](CO)[C@@H](O)[C@H](O)[C@H]1O (stereo not given in full) [ENFUMAFUNGIN]
MIC (Candida albicans): 0.05 µg/mL (≈ 0.0705 µM) | IC50 [11]: 1 µM

Structure (SMILES): CC(C)[C@@H](C)/C=C/[C@@H](C)[C@H]1CCC2=C3[C@@H](O)[C@@H]4O[C@@]45C[C@@H](OC(=O)[C@@H](N)[C@@H](OS(=O)(=O)O)C(C)C)CC[C@]5(C)[C@H]3CC[C@@]21C(=O)O
MIC (Candida albicans): 0.2 µg/mL (≈ 0.299 µM) | IC50 [11]: 3 µM

Structure (SMILES): C[C@@H]1CC[C@H]2C(C)(C)[C@H](O)[C@H](O)C[C@]2(C)[C@@]12Cc1c(O)cc3c(c1O2)COC3=O
IC50 [2]: > 200 µM | IC50 [3]: 111 µM | IC50 [4]: > 200 µM | IC50 [5]: 168 µM | IC50 [6]: 18.5 µM

Structure (SMILES): CCCCCCCC/C=C\CCCCCCCC(=O)OC
inhibition (Streptococcus mutans): 16.8%

Structure (SMILES): CCCCCCCCCCCCCCCc1cc(OS(=O)(=O)O)cc(OS(=O)(=O)O)c1
IC50 [9]: 4.3 µM

Structure (SMILES): CCCCCCCCO[C@H]1CN(CCCCCCCC)[C@H](CO)[C@@H](O)[C@@H]1O
IC50 [13]: 164 µM

Structure (SMILES): CCCCCCCC/C(I)=C(/I)CCCCCCCC(=O)OCC(COC(=O)CCCCCCC/C(I)=C(/I)CCCCCCCC)OC(=O)CCCCCCC/C(I)=C(/I)CCCCCCCC
inhibition (Streptococcus mutans): 26.3%

Structure (SMILES): O=S(=O)(O)c1cc(Nc2nc(Cl)nc(Nc3ccc(Nc4nc(Cl)nc(Nc5cc(S(=O)(=O)O)cc6cc(S(=O)(=O)O)c(/N=N/c7ccccc7S(=O)(=O)O)c(O)c56)n4)cc3)n2)c2c(O)c(/N=N/c3ccccc3S(=O)(=O)O)c(S(=O)(=O)O)cc2c1
Ki [1]: 2 µM

Structure (SMILES): CCCCCCCC/C=C\CCCCCCCC(=O)O
inhibition (Streptococcus mutans): 42.4%

Second part, the compound after the results:

Ki [1]: 11 µM
Structure (SMILES): Nc1c(S(=O)(=O)O)cc(Nc2ccc(Nc3nc(Cl)nc(Nc4ccccc4S(=O)(=O)O)n3)c(S(=O)(=O)O)c2)c2c1C(=O)c1ccccc1C2=O [CIBACRON BLUE 3GA]

inhibition (Trypanosoma brucei): 80%
Structure (SMILES): O=C(O)CN1C(=O)/C(=C\c2ccc(OCc3ccccc3)c(OCc3ccccc3)c2)SC1=S

IC50 [8]: 100 µM
Structure (SMILES): NC[C@H]1O[C@@H](O[C@H](c2cn(CCCCCOc3ccc(C(=O)c4ccccc4)cc3)nn2)[C@H]2O[C@@H](n3ccc(=O)[nH]c3=O)[C@H](O)[C@@H]2O)[C@H](O)[C@@H]1O

IC50 [8]: 100 µM
Structure (SMILES): NC[C@H]1O[C@@H](O[C@H](c2cn(CCCOc3ccc(C(=O)c4ccccc4)cc3)nn2)[C@H]2O[C@@H](n3ccc(=O)[nH]c3=O)[C@H](O)[C@@H]2O)[C@H](O)[C@@H]1O

IC50 [10]: 27 µM
Structure (SMILES): O=C(Oc1ccccc1)n1c(=O)oc2ccc(Cl)cc21

IC50 [12]: 10 µM
Structure (SMILES): C[C@@H](COC(=O)N1CCC(n2c(=O)[nH]c3ccccc32)CC1)N(Cc1ccccc1)Cc1ccccc1

IC50 [8]: 50 µM
Structure (SMILES): NC[C@H]1O[C@@H](O[C@H](c2cn(Cc3ccc(COc4ccc(C(=O)c5ccccc5)cc4)cc3)nn2)[C@H]2O[C@@H](n3ccc(=O)[nH]c3=O)[C@H](O)[C@@H]2O)[C@H](O)[C@@H]1O

inhibition (Trypanosoma brucei): 77%
Structure (SMILES): O=C(O)CN1C(=O)/C(=C\c2cccc(OCc3ccccc3)c2)SC1=S

IC50 [12]: 12 µM
Structure (SMILES): O=C(OC[C@H](Cc1ccccc1)N(Cc1ccccc1)Cc1ccccc1)N1CCC(n2c(=O)[nH]c3ccccc32)CC1

inhibition [7]: > 30%
Structure (SMILES): O=C(/C=C/c1cccs1)Nc1scc(-c2ccccc2)c1C(=O)O

inhibition [7]: > 30%
Structure (SMILES): CCOC(=O)C(C(C)C)C(N)Cc1ccc(F)cc1 (stereo not given)

IC50 [13]: 4 µM
Structure (SMILES): CCCCCCCCCC(=O)N[C@H](CN1CCCC1)[C@H](O)c1ccccc1

inhibition (Trypanosoma brucei): 77%
Structure (SMILES): O=C(O)CN1C(=O)/C(=C\c2ccccc2O)SC1=S

Reference: ChEMBL document CHEMBL3596159, “Beyond substrate analogues: new inhibitor chemotypes for glycosyltransferases” (Medchemcomm, 2014)
